From patent US11964949B2, “Substituted phenyloxazolidinones for antimicrobial therapy” (priority 2015, dated 2024)
Converted amounts (≈) assume the structure as drawn. Where two headings read alike, the source gives them in different places.

What was measured:
[1] = test system: Mycobacterium tuberculosis H37Rv; assay: In vitro assay for antimicrobial susceptibility (microplate Alamar blue, MIC); format: cell-based; details: for MIC: Mycobacterium tuberculosis, read-out: MIC (μg/mL) against H37Rv
[2] = test system: mitochondrial protein synthesis (MPS) in H9C2 cells; assay: In vitro assay for MPS inhibition (COX-1 / SDH-A ELISA in H9C2 cells); format: cell-based, rat; details: read-out: IC50 (μM) MPS inhibition
[3] = M. tuberculosis H37Rv, 7H9 broth, Alamar blue
[4] = Rattus norvegicus, 120 h, H9C2 cells, 5 days incubation

Row | Compound | MIC [1, 3] [µg/mL] | IC50 [2, 4] [µM] | further results
1 | O=C1O[C@@H](Cn2ccnn2)CN1c1cc(F)c(N2CCCSCC2)c(F)c1 [OTB-411, (R)-5-((1H-1,2,3-triazol-1-yl)methyl)-3-(3,5-difluoro-4-(1,4-thiazepan-4-yl)phenyl)oxazolidin-2-one] | 0.124 (≈ 0.314 µM) | 8.73 | –
2 | CNC(=O)OC[C@H]1CN(c2ccc(N3CC4(CSC4)C3)c(F)c2)C(=O)O1 [OTB-260-4A] | – | > 100 | MIC ([1]; H37RV): 0.39 µg/mL (≈ 1.02 µM)
3 | O=C(NC[C@H]1CN(c2cc(F)c(N3CC4CCC(C3)O4)c(F)c2)C(=O)O1)C1CC1 [OBD-252] | 0.47 (≈ 1.15 µM) | 32.3 | –
4 | COC(=O)NC[C@H]1CN(c2cc(F)c(N3CC4(CSC4)C3)c(F)c2)C(=O)O1 [OTB-242, Methyl (S)-((3-(3,5-difluoro-4-(2-thia-6-azaspiro[3.3]heptan-6-yl)phenyl)-2-oxo-oxazolidin-5-yl)methyl)carbamate] | 0.02 to 0.06 (≈ 0.0501 to 0.15 µM) | 23 to 71 | –
5 | O=C1O[C@@H](Cn2ccnn2)CN1c1cc(F)c(N2CC3(C2)C[S+]([O-])C3)c(F)c1 [OTB-522] | 1 (≈ 2.44 µM) | 38 | –
6 | CC(=O)NC[C@H]1CN(c2ccc(N3CC4(C3)C[S+]([O-])C4)c(F)c2)C(=O)O1 [OTB-523] | 0.5 (≈ 1.31 µM) | 4 | –
7 | O=C(NC[C@H]1CN(c2ccc(N3CCCSCC3)c(F)c2)C(=O)O1)C1CC1 [OTB-413, (S)—N-((3-(3-Fluoro-4-(1,4-thiazepan-4-yl)phenyl)-2-oxo-oxazolidin-5-yl)methyl)cyclopropanecarboxamide] | 0.108 (≈ 0.274 µM) | 9.13 | –
8 | COC(=O)NC[C@H]1CN(c2ccc(N3[C@@H]4CC[C@H]3CSC4)c(F)c2)C(=O)O1 [OTB-237, Methyl (((S)-3-(4-((1R,5S)-3-thia-8-azabicyclo[3.2.1]octan-8-yl)-3-fluorophenyl)-2-Oxo-oxazolidin-5-yl)methyl)carbamate] | – | – | MIC ([1]; H37RV): 0.03 to 0.11 µg/mL (≈ 0.0759 to 0.278 µM); IC50 ([2]; Rattus norvegicus, H9c2, 120 h): 15 to 23 µM
9 | O=C1O[C@@H](Cn2nccn2)CN1c1ccc(N2CC3(CSC3)C2)c(F)c1 [OTB-260-5A] | 0.44 (≈ 1.17 µM) | > 100 | –
10 | COC(=O)NC[C@H]1CN(c2ccc(N3CC4(C3)C[S+]([O-])C4)c(F)c2)C(=O)O1 [OTB-256] | 4 (≈ 10.1 µM) | 46 | –
11 | O=C1O[C@@H](CO)CN1c1cc(F)c(N2CC3CCC(C2)O3)c(F)c1 [OBD-114, 3-(4-(8-oxa-3-aza-bicyclo[3.2.1]octan-3-yl)-3,5-difluorophenyl)-5-(hydroxymethyl)oxazolidin-2-one] | 1.7 (≈ 5 µM) | > 100 | –
12 | COC(=O)NC[C@H]1CN(c2cc(F)c(N3C4CCC3C[S+]([O-])C4)c(F)c2)C(=O)O1 (stereo partly drawn) [OTB-519] | – | – | MIC ([1]; H37RV): 0.9 µg/mL (≈ 2.1 µM); IC50 ([2]; Rattus norvegicus, H9c2, 120 h): 51 µM
13 | CNC(=O)OC[C@H]1CN(c2cc(F)c(N3CC4(C3)C[S+]([O-])C4)c(F)c2)C(=O)O1 [OTB-516-4B] | – | > 100 | MIC ([1]; H37RV): 4.7 µg/mL (≈ 11.3 µM)
14 | (R)-5-((2H-1,2,3-Triazol-2-yl)methyl)-3-(3-fluoro-4-(2-oxa-6-azaspiro[3.3]heptan-6-yl)phenyl)oxazolidin-2-one [OTB-204] | – | – | MIC (μg/mL) against H37Rv [1, 3]: 3.2 to 3.7 µg/mL; IC50 ([2]; H9C2 cells, 5 days incubation): > 100 µM
15 | COC(=O)NC[C@H]1CN(c2cc(F)c(N3CCCSCC3)c(F)c2)C(=O)O1 [OTB-410, Methyl (S)-((3-(3,5-difluoro-4-(1,4-thiazepan-4-yl)phenyl)-2-oxo-oxazolidin-5-yl)methyl)carbamate] | 0.125 (≈ 0.311 µM) | > 100 | –
16 | CCCC(=O)NC[C@H]1CN(c2cc(F)c(N3C4CCC3CSC4)c(F)c2)C(=O)O1 [OBD-029, N—(((S)-3-(4-(3-thia-8-aza-bicyclo[3.2.1]octan-8-yl)-3,5-difluorophenyl)-2-oxooxazolidin-5-yl)methyl)butyramide] | – | – | MIC ([1]; H37RV): 0.11 µg/mL (≈ 0.259 µM); IC50 ([2]; Rattus norvegicus, H9c2, 120 h): > 100 µM
17 | O=C(NC[C@H]1CN(c2ccc(N3CC4(C3)C[S+]([O-])C4)c(F)c2)C(=O)O1)C1CC1 [OTB-255] | 1.9 (≈ 4.66 µM) | 10 | –
18 | NC[C@H]1CN(c2cc(F)c(N3C4CCC3CSC4)c(F)c2)C(=O)O1 [OBD-083, (5S)-3-(4-(3-thia-8-aza-bicyclo[3.2.1]octan-8-yl)-3,5-difluorophenyl)-5-(aminomethyl)oxazolidin-2-one] | – | – | MIC ([1]; H37RV): 0.05 µg/mL (≈ 0.141 µM); IC50 ([2]; Rattus norvegicus, H9c2, 120 h): 20 µM

Row | Compound | MIC [1, 3] [µg/mL] | IC50 [2, 4] [µM] | further results
19 | O=C1O[C@@H](Cn2nccn2)CN1c1ccc(N2CCC[S+]([O-])CC2)c(F)c1 (stereo partly drawn) [OTB-138, (5R)-5-((2H-1,2,3-Triazol-2-yl)methyl)-3-(3-fluoro-4-(1-oxido-1,4-thiazepan-4-yl)phenyl)oxazolidin-2-one] | 7.57 (≈ 19.2 µM) | > 100 | –
20 | O=C1O[C@@H](CO)CN1c1ccc(N2CC3CCC(C2)O3)c(F)c1 [OBD-112, 3-(4-(8-oxa-3-aza-bicyclo[3.2.1]octan-3-yl)-3-fluorophenyl)-5-(hydroxymethyl)oxazolidin-2-one] | 3.5 (≈ 10.9 µM) | > 100 | –
21 | NC[C@H]1CN(c2cc(F)c(N3C4CCC3C[S+]([O-])C4)c(F)c2)C(=O)O1 (stereo partly drawn) [OBD-087] | – | – | MIC ([1]; H37RV): 0.86 µg/mL (≈ 2.32 µM); IC50 ([2]; Rattus norvegicus, H9c2, 120 h): > 100 µM
22 | CC(=O)NC[C@H]1CN(c2cc(F)c(N3CC4(COC4)C3)c(F)c2)C(=O)O1 [OTB-230, (S)—N-((3-(3,5-Difluoro-4-(2-oxa-6-azaspiro[3.3]heptan-6-yl)phenyl)-2-oxo-oxazolidin-5-yl)methyl)acetamide] | 0.2 (≈ 0.544 µM) | 13 | –
23 | O=C(NC[C@H]1CN(c2ccc(N3CCC[S+]([O-])CC3)c(F)c2)C(=O)O1)c1ccco1 (stereo partly drawn) [OTB-127, N-[[(5S)-3-(3-Fluoro-4-(1-oxido-1,4-thiazepan-4-yl)phenyl)-2-oxo-oxazolidin-5-yl]methyl]furan-2-carboxamide] | 1.23 (≈ 2.83 µM) | 10.2 | –
24 | O=C(NC[C@H]1CN(c2cc(F)c(N3[C@@H]4CC[C@H]3CSC4)c(F)c2)C(=O)O1)C1CC1 [OTB-508, N—(((S)-3-(4-((1R,5S)-3-Thia-8-aza-bicyclo[3.2.1]octan-8-yl)-3,5-difluorophenyl)-2-oxo-oxazolidin-5-yl)methyl)cyclopropanecarboxamide] | – | – | MIC ([1]; H37RV): 0.2 µg/mL (≈ 0.472 µM); IC50 ([2]; Rattus norvegicus, H9c2, 120 h): 8 µM
25 | CS(=O)(=O)NC[C@H]1CN(c2cc(F)c(N3CC4(COC4)C3)c(F)c2)C(=O)O1 [OTB-232, (R)—N-((3-(3,5-Difluoro-4-(2-oxa-6-azaspiro[3.3]heptan-6-yl)phenyl)-2-oxo-oxazolidin-5-yl)methyl)methanesulfonamide] | 1.5 to 4 (≈ 3.72 to 9.92 µM) | > 100 | –
26 | CS(=O)(=O)NC[C@H]1CN(c2ccc(N3CC4(CSC4)C3)c(F)c2)C(=O)O1 [OTB-260-2A] | 0.82 (≈ 2.04 µM) | > 100 | –
27 | O=C(NC[C@H]1CN(c2cc(F)c(N3CCCSCC3)c(F)c2)C(=O)O1)C1CC1 [OTB-408] | 0.342 (≈ 0.831 µM) | 3.61 | –
28 | CCCC(=O)OC[C@H]1CN(c2ccc(N3CCCSCC3)c(F)c2)C(=O)O1 [OTB-108, (R)-[3-[3-Fluoro-4-(1,4-thiazepan-4-yl)phenyl]-2-oxo-5-oxazolidinyl]methyl butyrate] | 0.125 (≈ 0.315 µM) | > 100 | –
29 | O=C1O[C@@H](CO)CN1c1ccc(N2CC3(CSC3)C2)c(F)c1 [OTB-260, (R)-3-(3-Fluoro-4-(2-thia-6-azaspiro[3.3]heptan-6-yl)phenyl)-5-(hydroxymethyl)oxazolidin-2-one] | 1.49 (≈ 4.59 µM) | 30 | –
30 | O=C1O[C@@H](Cn2cncn2)CN1c1ccc(N2CCC[S+]([O-])CCC2)c(F)c1 [OBD-009, (R)-5-((1H-1,2,4-Triazol-1-yl)methyl)-3-(3-fluoro-4-(1-oxido-1,5-thiazocan-5-yl)phenyl)oxazolidin-2-one] | 21.1 (≈ 51.7 µM) | > 100 | –
31 | CCCC(=O)OC[C@H]1CN(c2ccc(N3CCC[S+]([O-])CC3)c(F)c2)C(=O)O1 (stereo partly drawn) [OTB-126, [(5R)-3-[3-Fluoro-4-(1-oxido-1,4-thiazepan-4-yl)phenyl)-2-oxo-oxazolidin-5-yl]methyl butyrate] | 0.847 (≈ 2.05 µM) | 35.6 | –
32 | COC(=O)NC[C@H]1CN(c2cc(F)c(N3C4CCC3COC4)c(F)c2)C(=O)O1 [OBD-052] | – | – | MIC ([1]; H37RV): 0.95 µg/mL (≈ 2.39 µM); IC50 ([2]; Rattus norvegicus, H9c2, 120 h): 13 µM
33 | CC(=O)NC[C@H]1CN(c2ccc(N3CC4(CSC4)C3)c(F)c2)C(=O)O1 [OTB-261, (S)—N-((3-(3-Fluoro-4-(2-thia-6-azaspiro[3.3]heptan-6-yl)phenyl)-2-oxo-oxazolidin-5-yl)methyl)acetamide] | 0.12 (≈ 0.328 µM) | 2 | –
34 | O=C1O[C@@H](Cn2ccnn2)CN1c1cc(F)c(N2C3CCC2C[S+]([O-])C3)c(F)c1 (stereo partly drawn) [OTB-517] | – | – | MIC ([1]; H37RV): 1.3 to 2 µg/mL (≈ 3.07 to 4.72 µM); IC50 ([2]; Rattus norvegicus, H9c2, 120 h): 30 to 55 µM
35 | NC[C@H]1CN(c2ccc(N3CC4CCC(C3)O4)c(F)c2)C(=O)O1 [OBD-113, 3-(4-(8-oxa-3-aza-bicyclo[3.2.1]octan-3-yl)-3-fluorophenyl)-5-(aminomethyl)oxazolidin-2-one] | 0.39 (≈ 1.21 µM) | > 100 | –
36 | CCCC(=O)NC[C@H]1CN(c2ccc(N3CCCSCC3)c(F)c2)C(=O)O1 [OBD-005, (S)—N-((3-(3-fluoro-4-(1,4-thiazepan-4-yl)phenyl)-2-oxooxazolidin-5-yl)methyl)buty ramide] | 0.055 (≈ 0.139 µM) | 15.6 | –
